Data from patent US6900193B1, “Structural modification of 19-norprogesterone I: 17-α-substituted-11-β-substituted-4-aryl and 21-substituted 19-norpregnadienedione as new antiprogestational agents” (The United States of America as represented by the …, priority 1996, dated 2005).

How the values were obtained:
[1] = target: T1, progesterone receptor (estrogen-primed rabbit uterus) (Oryctolagus cuniculus, UniProt P06186); assay: Relative binding affinity, progesterone receptor; details: for BINDING AFFINITY Progester: Table 2; for BINDING AFFINITY Progester / RELATIVE BINDING AFFINITY Progesterone: estrogen-primed rabbit uterus, progesterone = 100%; for binding affinities compared with the standard, compound 69B: progesterone receptor implied (rabbit or human isoform A not specified)
T1 construct: preparation of cytosols for the progesterone and glucocorticoid receptor assays; from tissue; host or cells: uterus of estradiol-primed immature female New Zealand White rabbits (cytosol)
T1 sequence (P06186 1-930): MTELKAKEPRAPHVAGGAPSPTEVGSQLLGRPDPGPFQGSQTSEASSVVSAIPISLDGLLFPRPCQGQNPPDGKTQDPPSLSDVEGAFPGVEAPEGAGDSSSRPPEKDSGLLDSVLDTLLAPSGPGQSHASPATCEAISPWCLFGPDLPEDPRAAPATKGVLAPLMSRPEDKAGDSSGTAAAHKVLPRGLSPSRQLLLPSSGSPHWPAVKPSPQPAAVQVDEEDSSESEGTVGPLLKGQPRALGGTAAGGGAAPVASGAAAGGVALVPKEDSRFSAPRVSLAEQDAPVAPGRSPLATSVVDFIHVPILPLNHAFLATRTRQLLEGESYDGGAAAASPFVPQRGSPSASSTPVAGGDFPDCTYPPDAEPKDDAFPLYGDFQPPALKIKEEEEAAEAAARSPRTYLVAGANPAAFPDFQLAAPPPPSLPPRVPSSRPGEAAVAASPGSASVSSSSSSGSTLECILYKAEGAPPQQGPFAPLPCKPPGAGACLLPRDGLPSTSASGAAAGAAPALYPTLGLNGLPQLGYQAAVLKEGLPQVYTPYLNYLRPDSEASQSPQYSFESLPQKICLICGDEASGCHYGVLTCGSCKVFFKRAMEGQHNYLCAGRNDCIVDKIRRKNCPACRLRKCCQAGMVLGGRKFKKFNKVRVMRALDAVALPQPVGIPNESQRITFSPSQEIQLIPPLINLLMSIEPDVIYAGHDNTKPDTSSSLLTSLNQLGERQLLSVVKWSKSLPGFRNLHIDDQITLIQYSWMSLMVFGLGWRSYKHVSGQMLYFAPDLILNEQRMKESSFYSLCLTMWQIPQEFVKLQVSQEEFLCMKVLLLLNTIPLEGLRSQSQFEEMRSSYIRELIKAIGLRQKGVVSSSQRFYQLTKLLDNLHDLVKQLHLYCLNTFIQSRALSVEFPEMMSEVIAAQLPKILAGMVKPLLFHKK
Protocol: (§1) Relative Binding Affinities for the Progesterone and Glucocorticoid Receptors
(§2) Uteri and thymus glands were obtained from estradiol-primed immature female rabbits of the New Zealand White strain for preparation of cytosols for the progesterone and glucocorticoid receptor assays, respectively. Tissues were excised and immediately placed in ice cold TEGDM buffer (10 mM Tris, pH 7.4; 1.5 mM EDTA; 10% glycerol vol/vol/; 1 mM dithiothreitol [DTT]; and 20 mM sodium molybdate). The tissues were dissected free of connective tissue and fat, weighed and minced finely. Minced tissues were homogenized in 3 volumes TEGDM/gm with four 10 second bursts of a VirTis Cyclone set at half maximum speed with a 30 second cooling period (in ice) between bursts. Homogenates were centrifuged at 109,663 g at 4° C. for 1 hour to yield the soluble cytosol fiction. Aliquots of cytosol were snap frozen and stored at −75° C.
(§3) All binding assays were carried out at 2-6° C. for 16-18 hours. The following radioactive ligands were used: [1,2-^3H(N)]-progesterone (50.0 Ci/mmole) for the progesterone receptor (PR). […] For the progesterone receptor RBA assays 0.02 ml uterine cytosol or TEDGM buffer, 0.05 ml of various concentrations of test compounds or progesterone, 0.13 ml TEGDM buffer and 0.05 ml [^3H]-progesterone were added to duplicate tubes. For the glucocorticoid receptor RBA assays 0.1 ml thymus cytosol or TEDGM buffer, 0.05 ml of various concentrations of test compounds or dexamethasone, 0.05 ml TEGDM buffer and 0.05 ml [3H]-dexamethasone were added to duplicate tubes. For the estrogen receptor RBA assays 0.05 ml uterine cytosol, 0.1 ml TEGDM buffer, 0.05 ml of various concentrations of test compounds or estradiol and 0.05 ml [^3H]-estradiol were added to duplicate tubes. The concentrations of the test compounds, progesterone, dexamethasone and estradiol ranged from 0.05 to 100 nM and the concentrations of the competitors ranged from 0.5 to 500 nM. Total binding was measured at radioligand concentrations of 3.5 nM and nonspecific binding was measured in the presence of a 200-fold excess of unlabeled progesterone (PR), dexamethasone (GR) or diethylstilbestrol (ER), respectively.
(§4) In all incubations bound and free ligand were separated using dextra-coated charcoal (DCC). A 0.1 ml aliquot of DCC (0.5% charcoal/0.05% Dextran T-70) was added to each tube. The tubes were vortexed and incubated on ice for 10 minutes. Five-tenths ml TEG buffer (without DTT or molybdate) was then added to all tubes to improve supernatant recovery following centrifugation. The charcoal was pelleted by centrifugation at 2,100 g for 15 minutes at 4° C. The supernatants containing the [^3H]-steroid receptor complexes were decanted into vials containing 4 ml Optifluor (Packard Instrument Co.), vortexed, equilibrated in a liquid scintillation counter for 30 minutes and then counted for 2 minutes. This provided the quantity of receptor bound [^3H]-steroid at each competitor concentration.

[2] = target: T2, glucocorticoid receptor (estrogen-primed rabbit thymus) (Oryctolagus cuniculus, UniProt P59667); assay: Relative binding affinity, glucocorticoid receptor; details: for BINDING AFFINITY Glucocortic: Table 2; for BINDING AFFINITY Glucocortic / RELATIVE BINDING AFFINITY Glucocorticoid: estrogen-primed rabbit thymus, dexamethasone = 100%
T2 construct: preparation of cytosols for the progesterone and glucocorticoid receptor assays; from tissue; host or cells: thymus of estradiol-primed immature female New Zealand White rabbits (cytosol)
T2 sequence (P59667 1-772): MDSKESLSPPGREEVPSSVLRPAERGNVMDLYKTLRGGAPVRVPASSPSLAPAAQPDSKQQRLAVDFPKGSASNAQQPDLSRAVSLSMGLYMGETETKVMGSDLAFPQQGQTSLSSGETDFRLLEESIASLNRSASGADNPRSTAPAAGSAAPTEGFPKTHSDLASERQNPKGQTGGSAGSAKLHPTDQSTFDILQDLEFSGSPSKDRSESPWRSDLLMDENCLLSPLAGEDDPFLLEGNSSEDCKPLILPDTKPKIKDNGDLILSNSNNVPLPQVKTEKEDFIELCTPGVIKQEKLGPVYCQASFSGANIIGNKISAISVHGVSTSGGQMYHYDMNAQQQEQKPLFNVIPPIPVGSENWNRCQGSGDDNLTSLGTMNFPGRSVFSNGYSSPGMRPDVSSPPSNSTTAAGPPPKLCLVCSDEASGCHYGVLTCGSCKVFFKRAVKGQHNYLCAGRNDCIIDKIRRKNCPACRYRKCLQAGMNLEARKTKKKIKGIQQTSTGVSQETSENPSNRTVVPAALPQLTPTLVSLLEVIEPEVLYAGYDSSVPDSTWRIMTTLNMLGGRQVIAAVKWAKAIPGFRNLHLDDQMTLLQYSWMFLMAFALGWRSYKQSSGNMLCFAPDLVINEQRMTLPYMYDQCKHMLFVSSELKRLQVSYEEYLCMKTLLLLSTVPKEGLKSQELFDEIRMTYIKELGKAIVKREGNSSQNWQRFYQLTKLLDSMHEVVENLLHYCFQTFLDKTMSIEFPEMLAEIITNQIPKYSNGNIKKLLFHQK
Protocol: as §1, §2, §3, §4

[3] = system: progesterone-induced endometrial proliferation; assay: AntiClauberg test; assay type: in vivo, rabbit; parameters: key to ANTIPROGESTATIONAL Anti-Clauberg: relative oral potency vs. reference compound set to 100; details: for BIOLOGICAL ACTIVITY antiClauberg: Table 2; for BIOLOGICAL ACTIVITY antiClauberg / ANTIPROGESTATIONAL Anti-Clauberg / antiClauberg / oral antiprogestational activity, in words: oral; for BIOLOGICAL ACTIVITY antiClauberg / ANTIPROGESTATIONAL Anti-Clauberg: CDB-2914 = 100 (assigned); for ANTIPROGESTATIONAL Anti-Clauberg: relative potency; for antiClauberg / oral antiprogestational activity, in words: versus the standard 69B
Protocol: AntiClauberg Test (Clauberg, C., Zentr. Gynakol., 54:2757-2770 (1930)) Immature female rabbits of the New Zealand White breed (approx. 1 kg body weight) were maintained under standard laboratory conditions and received a subcutaneous injection of 5 μg estradiol in 10% ethanol/sesame oil daily for 6 consecutive days. Twenty-four hours after the last dose of estradiol (day 7) animals received progesterone by subcutaneous injection (0.8 mg/day) and the experimental compound in appropriate vehicle (usually 10% ethanol/sesame oil) orally or subcutaneously for five consecutive days. One group of rabbits received progesterone only. Twenty-four hours after the last dose all animals were sacrificed for removal of the uterus which was cleaned of all fat and connective tissue, weighed to the nearest 0.2 mg and placed in 10% neutral buffered formalin for subsequent histological processing. Five micron sections stained with hematoxylin and eosin (H&E) were evaluated microscopically for the degree of endometrial glandular proliferation according to the method of McPhail (McPhail, supra). The percent inhibition of endometrial proliferation at each dose level of the experimental compound was derived by comparison with the progesterone-stimulated animals alone.

For “17α-Acetoxy-11β-[4-(N,N-diethylamino)phenyl]-21-thiocyanato-19-norpregna-4,9-diene-3,20-dione [Compound 138]”, the “BINDING AFFINITY Progester” value [1] was 63%, the “BINDING AFFINITY Glucocortic” value [2] was 14% and the “BIOLOGICAL ACTIVITY antiClauberg” value [3] was 57.

For `CSc1ccc([C@H]2C[C@@]3(C)[C@@H](CC[C@]3(OC(C)=O)C(C)=O)[C@@H]3CCC4=CC(=O)CCC4=C32)cc1` [Compound 74], the “BINDING AFFINITY Progester” value [1] was 131%, the “BINDING AFFINITY Glucocortic” value [2] was 32% and the “BIOLOGICAL ACTIVITY antiClauberg” value [3] was <10.

In the case of `CC(=O)O[C@]1(C(C)=O)CC[C@H]2[C@@H]3CCC4=CC(=O)CCC4=C3[C@@H](c3ccc(N4CCOCC4)cc3)C[C@@]21C` [Compound 72, 17α-Acetoxy-11β-[4-(N-Morpholino)phenyl]-19-norpregna-4,9-diene-3,20-dione], the “BINDING AFFINITY Progester” value [1] is reported as 109%, the “binding affinities compared with the standard, compound 69B” value [1] is reported as “binding affinities greater than that observed for the standard” and the “BINDING AFFINITY Glucocortic” value [2] is reported as 110%. For the same compound, the “BIOLOGICAL ACTIVITY antiClauberg” value [3] was 35.

For `CC(=O)O[C@]1(C(=O)COC(=O)CCC2CCCC2)CC[C@H]2[C@@H]3CCC4=CC(=O)CCC4=C3[C@@H](c3ccc(N(C)C)cc3)C[C@@]21C` [Compound 40, 17α-acetoxy-21-(3′-cyclopentylpropionyloxy)-11β-[4-(N,N-dimethylamino)phenyl]-19-norpregnadiene-3,20 dione], the “RELATIVE BINDING AFFINITY Progesterone” value [1] was 74%, the “RELATIVE BINDING AFFINITY Glucocorticoid” value [2] was 37% and the “ANTIPROGESTATIONAL Anti-Clauberg” value [3] was 155. The “antiClauberg / oral antiprogestational activity, in words” value [3] was “greater activity than the standard” and the “more potent in the antiClauberg test than the lead compound” value ([3]; versus CDB-2914) was “about 50%”.

With `COC(=O)OCC(=O)C1(OC(C)=O)CCC2C3CCC4=CC(=O)CCC4=C3C(c3ccc(N(C)C)cc3)CC21C` (stereo not drawn) [Compound 126c, 17α-Acetoxy-21-hydroxy-11β-[4-(N,N-dimethylamino)phenyl]-19-norpregna-4,9-diene-3,20-dione-21-methyl carbonate] the “BINDING AFFINITY Progester” value [1] was 68%, the “BINDING AFFINITY Glucocortic” value [2] was 67% and the “BIOLOGICAL ACTIVITY antiClauberg” value [3] was 224. For the same compound, the “antiClauberg / oral antiprogestational activity, in words” value [3] was “greater activity than the standard”.

In the case of `CCOCC(=O)[C@@]1(OC(C)=O)CCC2C3CCC4=CC(=O)CCC4=C3C(c3ccc(N(C)C)cc3)C[C@@]21C` (stereo partly drawn) [Compound 46, 17α-acetoxy-21-ethoxy-11β-[4-(N,N-dimethylamino)phenyl]-9-norpregna-4,9-diene-3,20-dione], the “RELATIVE BINDING AFFINITY Progesterone” value [1] is reported as 83%, the “RELATIVE BINDING AFFINITY Glucocorticoid” value [2] is reported as 46% and the “ANTIPROGESTATIONAL Anti-Clauberg” value [3] is reported as 130-210. The “antiClauberg / oral antiprogestational activity, in words” value [3] was “greater activity than the standard”.

With `COC1(C(C)=O)CCC2C3CCC4=CC(=O)CCC4=C3C(c3ccc(N(C)C)cc3)CC21C` (stereo not drawn) [Compound 97a, 17α-Methoxy-11β-[4-(N,N-dimethylamino)phenyl]-19-norpregna-4,9-diene-3,20-dione] the “BINDING AFFINITY Progester” value [1] was 120%, the “binding affinities compared with the standard, compound 69B” value [1] was “binding affinities greater than that observed for the standard” and the “BINDING AFFINITY Glucocortic” value [2] was 52%. The “BIOLOGICAL ACTIVITY antiClauberg” value [3] was 110 and the “antiClauberg / oral antiprogestational activity, in words” value [3] was “greater activity than the standard”.

With `C=COCC(=O)[C@@]1(OC(C)=O)CCC2C3CCC4=CC(=O)CCC4=C3C(c3ccc(N(C)C)cc3)C[C@@]21C` (stereo partly drawn) [Compound 129, 17α-Acetoxy-11β-[4-(N,N-dimethylamino)phenyl]-21-(1′-ethenyloxy)-19-norpregna-4,9-diene-3,20-dione] the “BINDING AFFINITY Progester” value [1] was 155%, the “binding affinities compared with the standard, compound 69B” value [1] was “binding affinities greater than that observed for the standard” and the “BINDING AFFINITY Glucocortic” value [2] was 20%. The “binding affinity for the glucocorticoid receptor, in words” value ([2]; rabbit thymus, versus CDB-2914 (69B) where stated) was “low binding affinity”, the “BIOLOGICAL ACTIVITY antiClauberg” value [3] was 303 and the “antiClauberg / oral antiprogestational activity, in words” value [3] was “greater activity than the standard”.

For `COC1(C(C)=O)CCC2C3CCC4=CC(=O)CCC4=C3C(c3ccc(N4CCCCC4)cc3)CC21C` (stereo not drawn) [Compound 97b, 17α-Methoxy-1-[4-(piperidino)phenyl]-19-norpregna-4,9-diene-3,20-dione], the “BINDING AFFINITY Progester” value [1] was 47%, the “BINDING AFFINITY Glucocortic” value [2] was 38% and the “BIOLOGICAL ACTIVITY antiClauberg” value [3] was 99.
